Test results published in BindingDB's records for doi:10.1016/j.bioorg.2016.08.011 (Recep Tayyip Erdogan University, 2016).
pIC50: −log10 of the molar value.

The molecules below were run against Alpha-glucosidase MAL12 (Saccharomyces cerevisiae (strain ATCC 204508 / S288c), UniProt P53341) (assay: α-Glucosidase inhibition assay). Conditions: pH 6.8.
Protocol: α-Glucosidase inhibition assay was performed spectrophotometrically. α-Glucosidase from Saccharomyces cerevisiae (Sigma-Aldrich) was dissolved in phosphate buffer (pH 6.8, 50 mM). Test compounds were dissolved in DMSO. In 96-well microtiter plates, 20 µL of test sample, 20 µL of enzyme (20 mU/mL) and 135 µL of buffer were added and incubated for 15 min at 37 °C. After incubation, 25 µL of p-nitrophenyl-α-D-glucopyranoside (2 mM, Sigma Aldrich) was added and change in absorbance was monitored for 20 min at 400 nm. Test compound was replaced by DMSO (10% final) as control. […] The assays were done in triplicate.

Chain of Alpha-glucosidase MAL12 (P53341 whole entry): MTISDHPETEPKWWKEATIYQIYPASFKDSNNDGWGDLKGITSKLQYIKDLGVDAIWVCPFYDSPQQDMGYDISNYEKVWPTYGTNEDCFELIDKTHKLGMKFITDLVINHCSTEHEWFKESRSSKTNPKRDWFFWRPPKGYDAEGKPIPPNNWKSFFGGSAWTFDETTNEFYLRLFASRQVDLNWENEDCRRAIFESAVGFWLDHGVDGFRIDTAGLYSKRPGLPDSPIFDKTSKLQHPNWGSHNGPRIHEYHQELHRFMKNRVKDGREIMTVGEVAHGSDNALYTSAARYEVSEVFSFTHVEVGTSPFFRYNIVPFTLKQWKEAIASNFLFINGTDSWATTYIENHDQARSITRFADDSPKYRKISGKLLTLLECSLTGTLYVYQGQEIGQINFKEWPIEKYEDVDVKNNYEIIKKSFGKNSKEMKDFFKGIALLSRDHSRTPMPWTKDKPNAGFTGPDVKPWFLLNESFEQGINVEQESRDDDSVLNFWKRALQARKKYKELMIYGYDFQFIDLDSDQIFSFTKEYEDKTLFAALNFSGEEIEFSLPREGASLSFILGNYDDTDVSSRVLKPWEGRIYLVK

pIC50 | Structure (SMILES)
3.60 | Sc1nnc(Cn2c(Cc3ccc(Cl)cc3Cl)nc3ccccc32)o1 [5-{[2-(2,4-Dichlorobenzyl)-1H-benzimidazol-1-yl]methyl}-1,3,4-oxadiazole-2-thiol (5a)]
3.80 | Clc1ccc(Cc2nc3ccccc3n2Cc2nnc(Nc3ccccc3)s2)c(Cl)c1 [5-{[2-(2,4-Dichlorobenzyl)-1H-benzimidazol-1-yl]methyl}-N-phenyl-1,3,4-thiadiazol-2-amine (8a)]
4.57 | O=[N+]([O-])c1ccc2nc(Cc3ccc(Cl)cc3Cl)n(Cc3nnc(S)o3)c2c1 [5-{[2-(2,4-Dichlorobenzyl)-6-nitro-1H-benzimidazol-1-yl]methyl}-1,3,4-oxadiazole-2-thiol (5b)]
4.39 | O=[N+]([O-])c1cccc2nc(Cc3ccc(Cl)cc3Cl)n(Cc3nnc(S)n3-c3ccccc3)c12 [5-{[2-(2,4-Dichlorobenzyl)-7-nitro-1H-benzimidazol-1-yl]methyl}-4-phenyl-4H-1,2,4-triazole-3-thiol (7b)]

Structure (SMILES) | pIC50
NNC(=O)Cn1c(Cc2ccc(Cl)cc2Cl)nc2ccc([N+](=O)[O-])cc21 [2-[2-(2,4-Dichlorobenzyl)-6-nitro-1H-benzimidazol-1-yl]acetohydrazide (4b)] | 4.98
O=C(Cn1c(Cc2ccc(Cl)cc2Cl)nc2ccccc21)NNC(=S)Nc1ccccc1 [2-{[2-(2,4-Dichlorobenzyl)-1H-benzimidazol-1-yl]acetyl}-N-phenylhydrazinecarbothioamide (6a)] | 3.85
O=C(Cn1c(Cc2ccc(Cl)cc2Cl)nc2ccc([N+](=O)[O-])cc21)NNC(=S)Nc1ccccc1 [2-{[2-(2,4-Dichlorobenzyl)-6-nitro-1H-benzimidazol-1-yl]acetyl}-N-phenyl hydrazinecarbothioamide (6b)] | 4.03
